Earlier results as cited in patent US20230210792A1, “USE OF A COMBINATION OF […] A CXCR-2 INHIBITORS FOR THE TREATMENT OR PREVENTION OF FAMILIAL MEDITERRANEAN FEVER (FMF) AND FLARE-UPS THEREOF” (ARISTEA THERAPEUTICS, INC., priority 2020, published 2023).

In the case of COc1cc2c(c(OC)c1OC)-c1ccc(OC)c(=O)cc1[C@@H](NC(C)=O)CC2 [Colchicine], the “Peak concentrations occur in (time to peak)” value (absorbed from the gastrointestinal tract) is given as 0.5 to 2 h and the “eliminated unchanged in the urine” value (metabolized in the liver, excreted primarily in the feces) is given as 10-20%.
